Source: ChEMBL document CHEMBL1158007, “Steroidal glycosides from the bulbs of Allium jesdianum” (J Nat Prod, 1999)

Key:
Format in all cases: functional
A549 = test: Growth inhibition of human A549 cells after 72 hrs by MTT assay; conditions: A549, 72 h
NCI-H23 = test: Growth inhibition of human NCI-H23 cells after 72 hrs by MTT assay; conditions: NCI-H23, 72 h
SF-268 = test: Growth inhibition of human SF-268 cells after 72 hrs by MTT assay; conditions: SF-268, 72 h
SN12C = test: Growth inhibition of human SN12C cells after 72 hrs by MTT assay; conditions: read-out: LC50 (the source's name)
HOP-62 = test: Growth inhibition of human HOP-62 cells after 72 hrs by MTT assay; conditions: HOP-62, 72 h
MOLT-4 = test: Growth inhibition of human MOLT-4 cells after 72 hrs by MTT assay; conditions: MOLT-4, 72 h
EKVX = test: Growth inhibition of human EKVX cells after 72 hrs by MTT assay
K562 = test: Growth inhibition of human K-562 cells after 72 hrs by MTT assay; conditions: K562, 72 h, read-out: LC50 (the source's name)
CAKI-1 = test: Growth inhibition of human Caki-1 cells after 72 hrs by MTT assay; conditions: CAKI-1, 72 h
SK-OV-3 = test: Growth inhibition of human SKOV3 cells after 72 hrs by MTT assay; conditions: SK-OV-3, 72 h
TK-10 = test: Growth inhibition of human TK-10 cells after 72 hrs by MTT assay; conditions: TK-10, 72 h
HL-60(TB) = test: Growth inhibition of human HL-60(TB) cells after 72 hrs by MTT assay; conditions: HL-60, 72 h
NCI-H226 = test: Growth inhibition of human NCI-H226 cells after 72 hrs by MTT assay; conditions: NCI-H226, 72 h
OVCAR-4 = test: Growth inhibition of human OVCAR-4 cells after 72 hrs by MTT assay; conditions: OVCAR-4, 72 h
UACC-62 = test: Growth inhibition of human UACC-62 cells after 72 hrs by MTT assay; conditions: UACC-62, 72 h
CCRF-CEM = test: Growth inhibition of human CCRF-CEM cells after 72 hrs by MTT assay
SK-MEL-2 = test: Growth inhibition of human SK-MEL-2 cells after 72 hrs by MTT assay; conditions: SK-MEL-2, 72 h
SK-MEL-5 = test: Growth inhibition of human SK-MEL-5 cells after 72 hrs by MTT assay; conditions: SK-MEL-5, 72 h
M14 = test: Growth inhibition of human M14 cells after 72 hrs by MTT assay; conditions: M14, 72 h
MDA-MB-231 = test: Growth inhibition of human MDA-MB-231cells after 72 hrs by MTT assay; conditions: MDA-MB-231, 72 h
NCI-H460 = test: Growth inhibition of human NCI-H460 cells after 72 hrs by MTT assay; conditions: NCI-H460, 72 h
MCF7 = test: Growth inhibition of human MCF7 cells after 72 hrs by MTT assay; conditions: MCF7, 72 h
[1] = read-out: LC50 (the source's name)

`C[C@@H]1CC[C@@]2(OC1)O[C@H]1C[C@H]3[C@@H]4CC[C@H]5C[C@@H](O[C@@H]6O[C@H](CO)[C@H](O[C@@H]7O[C@H](CO)[C@@H](O)[C@H](O[C@@H]8OC[C@@H](O)[C@H](O)[C@H]8O)[C@H]7O[C@@H]7O[C@H](CO)[C@@H](O)[C@H](O)[C@H]7O)[C@H](O)[C@H]6O)[C@H](O)C[C@]5(C)[C@H]4CC[C@]3(C)[C@H]1[C@@H]2C` was tested, and the GI50 (A549) was 0.35 µM, the CC50 (A549; [1]) was under 100 µM and the GI50 (NCI-H23) was 2 µM. For the same compound, the TGI (NCI-H23) was 8.7 µM, the CC50 (NCI-H23; [1]) was 36 µM and the GI50 (SF-268) was 13 µM. The TGI (SF-268) was 28 µM, the CC50 (SF-268; [1]) was 59 µM and the CC50 (SN12C) was under 100 µM. For the same compound, the GI50 (HOP-62) was 1.2 µM, the TGI (HOP-62) was 2.8 µM and the CC50 (HOP-62; [1]) was 6.2 µM. It also gave a GI50 (MOLT-4) of 41 µM, a TGI (MOLT-4) of 97 µM and a CC50 (MOLT-4; [1]) of under 100 µM. The GI50 (EKVX) was 11 µM, the TGI (EKVX) was 27 µM and the CC50 (EKVX; [1]) was 63 µM. The CC50 (K562) was under 100 µM, the GI50 (CAKI-1) was 1.4 µM and the TGI (CAKI-1) was 18 µM. The CC50 (CAKI-1; [1]) was under 100 µM, the GI50 (SK-OV-3) was 13 µM and the TGI (SK-OV-3) was 41 µM. It also gave a CC50 (SK-OV-3; [1]) of under 100 µM, a GI50 (TK-10) of 4.4 µM and a TGI (TK-10) of under 100 µM. For the same compound, the CC50 (TK-10; [1]) was under 100 µM, the GI50 (HL-60(TB)) was 4.7 µM and the TGI (HL-60(TB)) was 48 µM. For the same compound, the CC50 (HL-60(TB); [1]) was under 100 µM, the GI50 (NCI-H226) was 15 µM and the TGI (NCI-H226) was 34 µM. The CC50 (NCI-H226; [1]) was 76 µM, the GI50 (OVCAR-4) was 2 µM and the TGI (OVCAR-4) was 4.6 µM. It also gave a CC50 (OVCAR-4; [1]) of 13 µM, a GI50 (UACC-62) of 17 µM and a TGI (UACC-62) of 42 µM. The CC50 (UACC-62; [1]) was under 100 µM, the GI50 (CCRF-CEM) was 0.25 µM and the TGI (CCRF-CEM) was 0.55 µM. For the same compound, the CC50 (CCRF-CEM; [1]) was 2 µM, the GI50 (SK-MEL-2) was 5.5 µM and the TGI (SK-MEL-2) was 19 µM. The CC50 (SK-MEL-2; [1]) was 48 µM, the GI50 (SK-MEL-5) was 4.1 µM and the TGI (SK-MEL-5) was 40 µM. It also gave a CC50 (SK-MEL-5; [1]) of under 100 µM, a GI50 (M14) of 16 µM and a TGI (M14) of 35 µM. For the same compound, the CC50 (M14; [1]) was 74 µM, the GI50 (MDA-MB-231) was 1.8 µM and the TGI (MDA-MB-231) was 13 µM. For the same compound, the CC50 (MDA-MB-231; [1]) was 87 µM, the GI50 (NCI-H460) was 1.3 µM and the TGI (NCI-H460) was 4.2 µM. It also gave a CC50 (NCI-H460; [1]) of 16 µM, a GI50 (MCF7) of 0.3 µM and a TGI (MCF7) of 0.62 µM. The CC50 (MCF7; [1]) was 1.9 µM.
